Columns and labels:
[1] = tested on: MDA-MB-231 breast cancer cells; assay: KI library screen for TRAIL sensitization; assay type: cell-based, human
Description: (§1) A library of KIs was screened for TRAIL sensitization in various TRAIL-resistant cancer cells, including: HT29 (CRC), MDA-MB-231 (breast), LNCAP (prostate), DU145 (prostate), PC3 (prostate) and A549 (lung). […] The 355 KIs comprised of compounds targeting diverse kinases, including multi kinases, RTK (receptor kinase tyrosine), PI3K (phosphinistide 3-kinase), aurora kinases, including […] (mitogen-activated protein kinase). […] The interaction between KIs and TRAIL had been previously explored in vitro with the tyrosine KI sorafenib, a drug similar to regorafenib. However, such studies were mostly performed on cellular levels and not in in vivo models, combined with systemically administered recombinant TRAIL. Although a similar structure, regorafenib was newly approved in 2012. The interactions between the three other selected KIs and TRAIL have not been previously reported, in vitro or in vivo.

[2] = tested on: DU-145 prostate adenocarcinoma cells; assay: KI library screen for TRAIL sensitization; assay type: cell-based, human
Description: as §1

[3] = mouse, in vivo; cited from earlier work
[4] = tested on: PC3 prostate adenocarcinoma cells; assay: KI library screen for TRAIL sensitization; assay type: cell-based, human
Description: FIG. 2B depicts a bar graph showing quantified cell death after analyzing synergized cell death induced by TRAILPEG (1 μg/mL for 3 hr) and kinase inhibitors (KIs) in HT29 (human colon tumor cell line) and PC3 (human prostate tumor cell line) cells individually pretreated with selected 355 KIs. Relative cell death rates were calculated by [KI+TRAILPEG]/[KI alone] after separate MTT assays. The arrows indicate KIs with >60% cell death; n=3.
as §1

[5] = tested on: A549 lung carcinoma cells; assay: KI library screen for TRAIL sensitization; assay type: cell-based, human
Description: as §1

[6] = tested on: HP LNCAP prostate adenocarcinoma cells; assay: KI library screen for TRAIL sensitization; assay type: cell-based, human
Description: as §1
Regorafenib potentiated TRAIL-induced apoptosis in prostate cancer cells (LNCAP, HPLNCAP (High Passages LNCAP), DU-145 and PC-3) when combined with TRAILPEG (1 μg/mL) (FIG. 5). After treating cells with regorafenib (5 μM), caspases and anti-apoptotic proteins were analyzed by western blotting (FIG. 6A-FIG. 6C). […] Data confirmed that FDA-approved KIs or KIs under clinical development synergized with long-acting TRAILPEG by overcoming TRAIL-resistance through unique TRAIL sensitization mechanisms.

[7] = tested on: LNCAP prostate adenocarcinoma cells; assay: KI library screen for TRAIL sensitization; assay type: cell-based, human
Description: as §1

Compound | KIs that sensitize cancer cells to TRAIL-based agents [2] | circulating half-life [3] | KIs that sensitize cancer cells to TRAIL-based agents [6] | further results
COc1cc2ncnc(Nc3ccc(F)c(Cl)c3)c2cc1NC(=O)/C=C/CN1CCCCC1 [Dacomitinib (PF299804, PF299), Dacomitinib] | Example KIs that sensitize cancer cells to TRAIL-based agents. |  |  | KIs that sensitize cancer cells to TRAIL-based agents [1]: Example KIs that sensitize cancer cells to TRAIL-based agents.
10K-PEG-TRAIL: TRAIL derivatized with 10K PEG (Kim, et al.) |  | 6.2 h |  | 
5K-PEG-TRAIL: TRAIL derivatized with 5K PEG (Kim, et al.) |  | 5.3 h |  | 
CCOc1cc2ncc(C#N)c(Nc3ccc(OCc4ccccn4)c(Cl)c3)c2cc1NC(=O)/C=C/CN(C)C [Neratinib (HKI-272), Neratinib] | Example KIs that sensitize cancer cells to TRAIL-based agents. |  |  | 
C=CC(=O)Nc1ccc2ncnc(Nc3ccc(OCc4cccc(F)c4)c(Cl)c3)c2c1 [AST-1306] | Example KIs that sensitize cancer cells to TRAIL-based agents. |  |  | KIs that sensitize cancer cells to TRAIL-based agents [4]: Example KIs that sensitize cancer cells to TRAIL-based agents.
COCCOc1ccc2c(c1)ncn2-c1ccc2cccc(N3CCC(N)CC3)c2n1 [CP-673451] |  |  |  | KIs that sensitize cancer cells to TRAIL-based agents [5]: Example KIs that sensitize cancer cells to TRAIL-based agents.; KIs that sensitize cancer cells to TRAIL-based agents [4]: Example KIs that sensitize cancer cells to TRAIL-based agents.
COc1cc2c(Oc3ccc(NC(=O)C4(C(=O)Nc5ccc(F)cc5)CC4)cc3F)ccnc2cc1OCCCN1CCOCC1 [Foretinib (GSK1363089), Foretinib] | Example KIs that sensitize cancer cells to TRAIL-based agents. |  |  | 
COc1cc(N2CCC(N)CC2)ccc1Nc1ncc(Cl)c(-c2c[nH]c3ccccc23)n1 [AZD3463] | Example KIs that sensitize cancer cells to TRAIL-based agents. |  |  | KIs that sensitize cancer cells to TRAIL-based agents [4]: Example KIs that sensitize cancer cells to TRAIL-based agents.
CC(C)(C)c1cc(/C=C(\C#N)C(N)=S)cc(C(C)(C)C)c1O [Tyrphostin AG 879] |  |  | Example KIs that sensitize cancer cells to TRAIL-based agents. | 
2K-PEG-TRAIL: TRAIL derivatized with 2K PEG (Kim, et al.) |  | 3.9 h |  | 
30K-PEG-TRAIL: TRAIL derivatized with 30K PEG (Kim, et al.) |  | 17.7 h |  | 
20K-PEG-TRAIL: TRAIL derivatized with 20K PEG (Kim, et al.) |  | 12.3 h |  | 
CC(C)(C)c1cc(C=C(C#N)C#N)cc(C(C)(C)C)c1O [Tyrphostin 9] | Example KIs that sensitize cancer cells to TRAIL-based agents. |  | Example KIs that sensitize cancer cells to TRAIL-based agents. | KIs that sensitize cancer cells to TRAIL-based agents [7]: Example KIs that sensitize cancer cells to TRAIL-based agents.; KIs that sensitize cancer cells to TRAIL-based agents [4]: Example KIs that sensitize cancer cells to TRAIL-based agents.
C=CC(=O)Nc1ccc2ncnc(Nc3cccc(Br)c3)c2c1 [PD168393] |  |  | Example KIs that sensitize cancer cells to TRAIL-based agents. | 
C=CC(=O)Nc1cccc(Oc2nc(Nc3ccc(N4CCN(C)CC4)cc3OC)ncc2Cl)c1 [WZ4002] |  |  | Example KIs that sensitize cancer cells to TRAIL-based agents. | KIs that sensitize cancer cells to TRAIL-based agents [5]: Example KIs that sensitize cancer cells to TRAIL-based agents.
Cn1cc(-c2ccc3nnc(Sc4ccc5ncccc5c4)n3n2)cn1 [SGX-523] |  |  | Example KIs that sensitize cancer cells to TRAIL-based agents. | KIs that sensitize cancer cells to TRAIL-based agents [7]: Example KIs that sensitize cancer cells to TRAIL-based agents.
